Legend:
[1] = target: T1, CYP125A4 (Mycolicibacterium smegmatis, UniProt A0QY38); assay: UV-vis partial type I spectral shift; format: binding
T1 sequence (A0QY38 1-430): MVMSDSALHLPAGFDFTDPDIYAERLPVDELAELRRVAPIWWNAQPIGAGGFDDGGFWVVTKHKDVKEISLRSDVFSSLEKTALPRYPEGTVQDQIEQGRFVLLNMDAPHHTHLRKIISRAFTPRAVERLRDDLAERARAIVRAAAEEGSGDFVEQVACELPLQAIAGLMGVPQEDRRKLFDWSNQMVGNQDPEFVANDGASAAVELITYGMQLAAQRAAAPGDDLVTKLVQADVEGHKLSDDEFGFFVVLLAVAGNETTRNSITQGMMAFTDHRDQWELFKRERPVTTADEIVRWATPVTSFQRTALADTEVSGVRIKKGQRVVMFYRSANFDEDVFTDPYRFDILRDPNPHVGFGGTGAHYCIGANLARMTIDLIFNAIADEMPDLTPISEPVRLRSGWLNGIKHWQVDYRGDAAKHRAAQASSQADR

[2] = test system: CC(C)CCC[C@@H](C)[C@H]1CC[C@H]2[C@@H]3CCC4=CC(=O)CC[C@]4(C)[C@H]3CC[C@]12C; assay: steady-state turnover of purified enzyme, HPLC; format: biochemical, Mycolicibacterium smegmatis; conditions: heme
[3] = test system: CC(C)CCC[C@@H](C)[C@H]1CC[C@H]2[C@@H]3[C@H](O)CC4=CC(=O)CC[C@]4(C)[C@H]3CC[C@]12C; assay: steady-state turnover of purified enzyme, HPLC; format: biochemical, Mycolicibacterium smegmatis; conditions: heme
[4] = target: T1, CYP125A4; assay: UV-vis spectral titration; format: binding
[5] = target: CYP125A3 (Mycolicibacterium smegmatis, UniProt A0R4Y3); assay: UV-vis spectral titration; format: binding
Sequence of CYP125A3 (A0R4Y3 whole entry): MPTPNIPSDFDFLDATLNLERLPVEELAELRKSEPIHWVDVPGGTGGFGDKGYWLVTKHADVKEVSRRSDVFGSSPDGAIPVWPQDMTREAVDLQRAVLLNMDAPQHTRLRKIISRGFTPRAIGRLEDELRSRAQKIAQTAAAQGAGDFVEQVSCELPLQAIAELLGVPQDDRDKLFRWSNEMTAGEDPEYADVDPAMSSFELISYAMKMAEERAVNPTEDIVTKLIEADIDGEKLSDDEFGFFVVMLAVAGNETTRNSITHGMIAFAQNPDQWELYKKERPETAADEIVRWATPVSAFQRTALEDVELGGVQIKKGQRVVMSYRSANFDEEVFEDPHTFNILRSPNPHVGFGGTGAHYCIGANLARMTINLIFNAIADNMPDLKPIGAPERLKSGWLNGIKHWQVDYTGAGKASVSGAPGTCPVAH

For CC(C)CCC[C@@H](C)[C@H]1CC[C@H]2[C@@H]3CC=C4C[C@@H](O)CC[C@]4(C)[C@H]3CC[C@]12C [cholesterol], the “UV-vis partial type I spectral shift; C-26 oxidation by HPLC” value [1] was “Addition of cholesterol or 4-cholesten-3-one did induce a partial shift to the type I high-spin species”.

With “CYP125A3 W83Y (Mycolicibacterium smegmatis MC2 155; W83Y)” the Km [2] was 24.1 ± 7.8 µM.

In the case of “CYP125A4 Y87W (Mycolicibacterium smegmatis MC2 155; Y87W)”, the Km [3] is reported as 5.1 ± 1.3 µM.

Work on CC(C)CCC[C@@H](C)[C@H]1CC[C@H]2[C@@H]3[C@H](O)C=C4C[C@@H](O)CC[C@]4(C)[C@H]3CC[C@]12C [7α-hydroxycholesterol] yielded a Kd [4] of 8.7 ± 0.5 µM and a Kd [5] of 32.9 ± 4.7 µM.

— PMC4660985 (Biochemistry, 2015)
